# Several values for one entry are separate records, joined by “and”; a condition that tells them apart may be missing. Equal entries are not always repeated.
# Tested on: 475296-252-R-J1-PDC spheroid viability
# Assay: Anticancer human tumor 475296-252-R-J1-PDC patient-derived rectal carcinoma cell line growth inhibition [PI3K]
# Conditions: spheroids with HUVEC and MSC; for viability, T/C: stronger effect = lower value
# Description: Combinatorial screen of targeted agents with the PI3K inhibitors inavolisib, alpelisib, duvelisib, and copanlisib in multi-cell type tumor spheroids
# A high-throughput screen of multi-cell type tumor spheroids was designed to identify active combinations of targeted small molecules and PI3K pathway inhibitors. Complex spheroids include a stromal component modeled by human endothelial cells (HUVEC) and fibroblasts modeled by human mesenchymal stem cells (MSCs). The concentration ranges selected for each drug and investigational agent were based upon clinically achievable concentrations if the clinical Cmax of the agent was known.
# Compounds. The drugs and investigational agents: inavolisib (NSC800729), alpelisib (NSC765974), duvelisib (NSC772469), copanlisib (NSC816437), ipatasertib (NSC767898), afuresertib (NSC778305), talazoparib (NSC767125), sapanisertib (NSC764658), selumetinib (NSC741078), tovorafenib (DAY101, NSC766906), vemurafenib (NSC761431), ravoxertinib (NSC781343), sotorasib (NSC818433), MRTX1133 (NSC 836407), abemaciclib (NSC 768073), palbociclib (NSC758247), venetoclax (NSC 766270), SY5609 (NSC837396), enzalutamide (NSC755605), and darolutamide (NSC825331), were obtained from the National Cancer Institute (NCI) Developmental Therapeutics Program Chemical Repository. The FDA-approved anticancer drug set is available from the NCI Developmental Therapeutics Program. […] The stock solutions were prepared in dimethyl sulfoxide (DMSO, Sigma-Aldrich, St. Louis, MO, cat. D2650) at 800-fold the tested concentration and stored at -70 degrees C prior to their use. All drugs and investigational agents were tested over a range starting from a high concentration at or near the clinical Cmax and decreasing in half-log increments. If the clinical Cmax for an agent had not been determined, the highest concentration tested was 10 microM.
# Cell Culture. All cells were maintained in an incubator at 37 degrees C and 5% CO2 with 95% humidity. The PDC lines were cultured according to standard operating procedures established by the NCI PDMR (https://pdmr.cancer.gov/sops/default.htm). All PDCs were thawed and cultured in Matrigel-coated flasks prepared with a working solution of 1X Ham's F-12 nutrient mix, without supplementation (Invitrogen, Waltham, MA, cat. 11765054), 100 U/mL penicillin-streptomycin (Invitrogen, cat. 15140122), and 2.5% Matrigel (Corning Inc., Corning, NY, cat. 354248) for the first three passages. The 354836-022-R-J1-PDC, 475296-252-R-J1-PDC, and 997726-040-R-J2-PDC lines were cultured in 6A media, which includes advanced DMEM/F-12 (Thermo Fisher Scientific, cat. 12634028), 10 mM HEPES (Thermo Fisher Scientific, cat. 15630080), 1X GlutaMAX supplement (Thermo Fisher Scientific, cat. 35050061), 0.1 mg/mL primocin (InvivoGen, San Diego, CA, cat. ant-pm-2), 10% defined fetal bovine serum, heat inactivated (HyClone Laboratories Inc., Logan, UT, cat. SH30070.03HI), 50% L-WRN conditioned media (ATCC, cat. CRL-3276), 1.25 mM N-Acetyl-L-cysteine (Sigma-Aldrich, cat. A9165), 10 mM nicotinamide (Sigma-Aldrich, cat. N0636), 1X B-27 supplement (Thermo Fisher Scientific, cat. 17504044), 1X N-2 supplement (Thermo Fisher Scientific, cat. 17502048), and 10 microM Y-27632 dihydrochloride (Tocris Bioscience, Bristol, United Kingdom, cat. 1254). The 624824-186-R-J2-PDC line was cultured in 6C/Colon 1B media, which includes all 6A media components plus 50 ng/mL human EGF recombinant protein (Thermo Fisher Scientific, cat. PHG0311). […]
# [1] = compound alone, run of 06/12/2023
# [2] = compound alone, run of 06/13/2023
# 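Also: spheroids exposed to agents for seven days before readout.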
SMILES,IC50 (curve of compound),IC50 [1] [nM],IC50 [2] [nM],"viability, T/C (compound 0.000316 µM)","viability, T/C (compound 0.001 µM)","viability, T/C (compound 0.00316 µM)","viability, T/C (compound 0.01 µM)","viability, T/C (compound 0.0316 µM)","viability, T/C (compound 0.1 µM)","viability, T/C (compound 0.316 µM)","viability, T/C (compound 1 µM)","viability, T/C (compound 3.16 µM)","viability, T/C (compound 10 µM)","viability, T/C (compound 0.00949 µM)","viability, T/C (compound 0.03 µM)","viability, T/C (compound 0.0949 µM)","viability, T/C (compound 0.3 µM)","viability, T/C (compound 3 µM)"
CC(C)n1nc(-c2ccc3oc(N)nc3c2)c2c(N)ncnc21,> 100 nM,,,99.6% [middle of 4 runs],94.3% [middle of 4 runs],93.9% [middle of 4 runs],,,63.1% [middle of 4 runs],,,,,,,,,
CC(Nc1ncnc2nc[nH]c12)c1cc2cccc(Cl)c2c(=O)n1-c1ccccc1 (configuration not stated),,,> 10000,,,,,102% [middle of 8 runs],96.3% [middle of 8 runs],90.4% [middle of 8 runs],102% [middle of 8 runs],96.3% [middle of 8 runs],94.9% [middle of 8 runs],,,,,
Cn1cnc2c(F)c(Nc3ccc(Br)cc3Cl)c(C(=O)NOCCO)cc21,> 3000 nM and 2760 nM,,,,,,,,,,,,,97.5% [middle of 4 runs],91.9% [middle of 4 runs],90.2% [middle of 4 runs],80.8% [middle of 4 runs],61.2% [middle of 4 runs]
Cn1ncnc1[C@H]1c2n[nH]c(=O)c3cc(F)cc(c23)N[C@@H]1c1ccc(F)cc1,> 100 nM,,,114% and 102% (2×) and 106%,104% [middle of 4 runs],96.1% [middle of 4 runs],93.1% [middle of 4 runs],104% [middle of 4 runs],90.4% [middle of 4 runs],,,,,,,,,

# Now from value to compound, other results behind:
IC50 (curve of compound),IC50 [1] [nM],IC50 [2] [nM],SMILES,"viability, T/C (compound 0.000316 µM)","viability, T/C (compound 0.001 µM)","viability, T/C (compound 0.00316 µM)","viability, T/C (compound 0.01 µM)","viability, T/C (compound 0.0316 µM)","viability, T/C (compound 0.1 µM)","viability, T/C (compound 0.316 µM)","viability, T/C (compound 1 µM)","viability, T/C (compound 3.16 µM)","viability, T/C (compound 10 µM)","viability, T/C (compound 0.00949 µM)","viability, T/C (compound 0.03 µM)","viability, T/C (compound 0.0949 µM)","viability, T/C (compound 0.3 µM)","viability, T/C (compound 3 µM)"
> 100 nM,,,CC(=O)c1c(C)c2cnc(Nc3ccc(N4CCNCC4)cn3)nc2n(C2CCCC2)c1=O,106% [middle of 4 runs],98.3% [middle of 4 runs],98% [middle of 4 runs],98.9% [middle of 4 runs],108% [middle of 4 runs],108% [middle of 4 runs],,,,,,,,,
> 10000 nM,,,CC(C)NCC(C(=O)N1CCN(c2ncnc3c2C(C)CC3O)CC1)c1ccc(Cl)cc1 (configuration not stated),,,,,102% [middle of 4 runs],105% [middle of 4 runs],89.5% [middle of 4 runs],76.1% [middle of 4 runs],75.5% [middle of 4 runs],62.3% [middle of 4 runs],,,,,
,> 1000,,CC(Nc1ccc2c(c1)OCCn1cc(N3C(=O)OCC3C(F)F)nc1-2)C(N)=O (configuration not stated),,,98.8% [middle of 8 runs],96.9% [middle of 8 runs],98.1% [middle of 8 runs],96.8% [middle of 8 runs],91.3% [middle of 8 runs],81.1% [middle of 7 runs],,,,,,,
> 1000 nM,,,CCN1CCN(Cc2ccc(Nc3ncc(F)c(-c4cc(F)c5nc(C)n(C(C)C)c5c4)n3)nc2)CC1,,,101% [middle of 4 runs],100% [middle of 4 runs],95.7% [middle of 4 runs],100% [middle of 4 runs],101% [middle of 4 runs],92.4% [middle of 4 runs],,,,,,,
,,> 1000,COc1c(OCCCN2CCOCC2)ccc2c3n(c(=NC(=O)c4cnc(N)nc4)nc12)CCN3,,,103% [middle of 8 runs],97.3% [middle of 8 runs],90.7% [middle of 8 runs],87% [middle of 8 runs],71.5% [middle of 8 runs],68% [middle of 8 runs],,,,,,,
,> 10000,,Cc1nc(NC(=O)N2CCCC2C(N)=O)sc1-c1ccnc(C(C)(C)C(F)(F)F)c1 (configuration not stated),,,,,98.6% [middle of 8 runs],97.1% [middle of 8 runs],97% [middle of 8 runs],99.7% [middle of 8 runs],90.8% [middle of 8 runs],81.6% [middle of 8 runs],,,,,
